Measured values as given in patent US9925185B1, “Treatment and prevention methods for mammalian neurosensory hair cells loss” (Creighton University, priority 2014, dated 2018).

Tests used:
N2a cells = tested on: N2a cells
Method: (§1) Cytotoxicity effects for each drug were measured by the colorimetric MTT assay. The MTT assay includes a yellow tetrazole that is reduced to purple formazan in living cells. In this implementation, solubilization solution (e.g., dimethyl sulfoxide, an acidified ethanol solution, or a solution of the detergent sodium dodecyl sulfate in diluted hydrochloric acid) was added to dissolve the insoluble purple formazan product into a colored solution. The absorbance of this colored solution was quantified by measuring at a certain wavelength (e.g, between 500 and 600 nm) by a spectrophotometer where the degree of light absorption depends on the solvent. The MTT assay can provide a useful measure of cell viability and proliferation. To quantify cytotoxicity, 10 μl of 10 mg/ml of MTT reagent was added to a well containing cells, and the cells were incubated at 37° C. for 4 hours. The supernatant was aspirated and the purple-colored formazan product was dissolved in 100 μl of DMSO. Absorbance was measured at 590 nm. The average of triplicate wells was taken for each concentration of the drug, and cell viability was calculated by substituting the corresponding mean absorbance values using the following equation:
(§2) A T-test (*=p<0.01; 0 μM=untreated cells) was used to compare toxicity between the two drugs at different concentrations.

[1] = tested on: cisplatin-treated N2a cells; conditions: 1 μM quinoxaline pre-treatment, then 100 μM cisplatin
Method: as §1, with “equation: […]” for “equation:”
(§3) Cells were plated at a density of 20,000 cells per well overnight, followed by a pretreatment with varying concentrations of quinoxaline for one hour. […]

[2] = tested on: cochlear hair cells (organ of Corti); test: In vivo chemoprotective and proliferative effects on cochlear hair cells of cisplatin-treated mice; conditions: C57BL/6 mice
Method: The inner ear neurosensory epithelia, the organ of Corti (OC), were analyzed. FIGS. 4A through 4D illustrate the outer hair cells (OHCs) and inner hair cells (IHCs) in the middle turn of the cochlea of adult C57BL/6 mice submitted to different treatments. The control group was the untreated cochlea, illustrated in FIG. 4A.

[3] = tested on: cisplatin-treated HEI-OC1 cells; test: Protective potential of quinoxaline pre-treatment on cisplatin-treated HEI-OC1 cells; type: cell-based
Method: HEI-OC1 cells were plated at a density of 20,000 cells per well overnight, followed by a pre-treatment with varying concentrations of quinoxaline (i.e., 200 nM, 1 μM, 10 μM, and 50 μM) for one hour.

HT 1080 cells = tested on: HT 1080 cells
Method: as §1, §2

HEI-OC1 cells [4] = type: cell-based; conditions: 24 hours
Method: As previously done for HT 1080 and N2a cells, the potential cytotoxicity of quinoxaline was measured in HEI-OC1 cells. HEI-OC1 cells were treated with a crescent dosage of quinoxaline (i.e., 200 nM, 500 nM, 1 μM, 10 μM, 50 μM) for 24 hours and submitted to MIT analyses.

[5] = tested on: cisplatin-treated HT 1080 cells; test: Protective potential of quinoxaline pre-treatment on cisplatin-treated HT 1080 cells; type: cell-based, human; conditions: quinoxaline pre-treatment 1 hour, then 100 μM cisplatin 24 hours
Method: as §1, with “equation: […]” for “equation:”
as §3

HEI-OC1 cells [6] = test: CYQUANT cell proliferation assay (DNA content) in HEI-OC1 cells; type: cell-based; conditions: 200 nM, 500 nM, 1 μM, 5 μM for 24 hours, t-test p<0.001, most noticeable at 200 and 500 nM
Method: In an implementation, HEI-OC1 cells were treated with different concentrations (e.g., 200 nM, 500 nM, 1 μM, and 5 μM) of quinoxaline for 24-hours. Untreated cells were used as control groups. To quantify potential changes in cell proliferation following the treatment, DNA isolated from treated and untreated cells was submitted to CYQUANT analysis (Invitrogen, Grand Island, N.Y.), following the manufacturer's instructions for cell proliferation assay. The CYQUANT assay is based on the principle that cell number is proportional to the measurement of cellular DNA content. However, the use of the CYQUANT assay is offered by way of example only and is not meant to be restrictive of the present disclosure. In other embodiments, other types of cell proliferation assays can be used to quantify potential changes in cell proliferation. FIG. 3B illustrates the DNA content of untreated cells and quinoxaline-treated cells. […] Quinoxaline's effect in cell proliferation was most noticeable when cells were treated with lower concentrations (i.e., 200 nm and 500 nM) of the drug.

Row | SMILES | cell response compared with HT 1080 cells (N2a cells) | cell proliferation [1] | cell proliferation (numbers of supernumerary cells) ([2]; low doses (e.g., 15 mg)) | supernumerary myosin VIIa-positive cells at the IHC region ([2]; quinoxaline pre-treated ears) | myosin VIIa-positive hair cells in middle turn of cochlea ([2]; quinoxaline pre-treatment + cisplatin 20 mg/Kg, versus cisplatin only) | survival rate ([3]; 200 nM quinoxaline 1 hour pre-treatment + 200 μM cisplatin 24 hours) [%] | survival rate ([3]; 1 μM quinoxaline 1 hour pre-treatment + 200 μM cisplatin 24 hours) [%] | cell survival ([3]; pre-treated with higher than 10 μM quinoxaline + 200 μM cisplatin) | cytotoxicity (HT 1080 cells) | effect on cell proliferation (total number of cells) (HT 1080 cells; HT 1080 cells, 0.5 μM) | cell death (HEI-OC1 cells [4]; HEI-OC1, dosages higher than 10 μM) | cell proliferation (HEI-OC1 cells [4]; HEI-OC1, lower doses of quinoxaline) | sensitivity of HEI-OC1 cells (HEI-OC1 cells [4]; quinoxaline concentrations higher than 5 μM) | overall cytotoxicity versus 100 μM cisplatin only [5] | DNA content (cell proliferation) versus untreated cells (HEI-OC1 cells [6])
1 | N.N.[Cl][Pt][Cl] [cisplatin, reference compound] | No statistically significant differences |  |  |  |  |  |  |  |  |  |  |  |  |  | 
2 | c1ccc2nccnc2c1 [quinoxaline] | No statistically significant differences | promoted their proliferation | increase in the numbers of supernumerary cells | supernumerary myosin VIla-positive cells were observed | myosin VIla-positive hair cells were still observed | 25 | 40 | No statistically significant differences in cell survival | consistently lower than that of cisplatin | modest, but quantifiable, positive effect on cell proliferation | smaller, but quantifiable cell death | increase in cell proliferation | particularly sensitive | significantly reduced overall cytotoxicity | statistically significant increase in DNA content
